This note sets out measurements from patent US12637473B2, “MDM2 protein degraders” (THE REGENTS OF THE UNIVERSITY OF MICHIGAN, priority 2016, dated 2026).

Holding throughout (assay type): cell-based
Assay [1] has as its system p53 target genes: p21, PUMA and BAX. Briefly: Activation of p53 downstream target genes, quantitative real-time PCR. The note with it: RS4; 11 cells; 0.3 μM; 3, 6, or 12 hours. The procedure:
RS4; 11 cells were treated with Cpd. A (0.3 μM), Cpd. No. 15 (10 nM), and Cpd. No. 22 (10 nM) for 3, 6, or 12 hours, and then harvested and washed. Cellular mRNA samples were extracted from the cells and then subjected to Reverse Transcription and quantitative real-time PCR for the analysis of the mRNA levels of three representative p53 target genes: p21, that induces cell cycle arrest, and PUMA and BAX that leads to apoptosis. […] A, Cpd. No. 15, and Cpd. No. 22.
A general note: In qPCR the cycle at which signal appears reflects the starting amount.

For the next assay, the system named is RS4; 11 cell line. Briefly: CellTiter-Glo Luminescent Cell Viability Assay, cell growth inhibition. Particulars: Homo sapiens, 96 h, 4 days. A digest of the protocol:
(§1)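 Cells plated at 2,000/well with serially diluted compounds, incubated 4 days at 37° C, 5% CO2. Viability read by CellTiter-Glo luminescence after 10-20 min at room temperature; IC50 from dose-response fit.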
(In ATP-based viability assays light output follows the ATP content of the culture.)

A further assay deals with MV4-11 cell line. The description is as above. Particulars: Homo sapiens, 96 h, 4 days. In short, it runs like this: as §1
The test system of assay [2] is RS4; 11 cells with stable shRNA knockdown of p53. Nature of the assay: Cell growth inhibition by WST assay, p53 knockdown cells. Further details: LogIC50: unit not given here. The note with it: RS4;11 sh p53, 4 days; for IC50: Homo sapiens, 96 h. On the procedure: (§2) RS4; 11 cells with stable shRNA knockdown of p53 or those transfected shRNA control vector were treated with Cpd. A, Cpd. B, Cpd. No. 14, Cpd. No. 21, Cpd. No. 15, and Cpd. No. 22 for 4 days, with a cell concentration of ˜15,000/well. Cell growth inhibition was determined by WST assay. See Table 7 (p53) and Table 8 (control). Significant increases in IC50 of the Compounds of the Disclosure in the p53 knockdown RS4; 11 cells were observed compared with that in the sh control cells. […] The p53 knockdown efficiency was determined by western blot for p53 protein levels with or without treatment of Cpd. A (1 μM) for 2 hours.

In a further assay the test system is RS4; 11 cells. Nature of the assay: Cell growth inhibition by WST assay with Cpd. C co-treatment (CRBN competition). Further details: LogIC50: unit not given here. Particulars: for HillSlope / IC50 / LogIC50: 4 days. The procedure:
RS4; 11 cells were pre-incubated with different concentrations of Cpd. C to compete for the binding of phthalimide to CRBN, or DMSO, for 2 hours before adding Cpd. A, Cpd. No. 14, Cpd. No. 15, and Cpd. No. 22. The cells were then co-treated with 10, 20, or 30 μM Cpd. C and increasing concentrations of Cpd. A, Cpd. No. 14, Cpd. No. 15, and Cpd. No. 22 for 4 days, with a starting cell concentration of ˜15,000/well. Cell growth inhibition was determined by the WST assay. […] No. 14, Cpd. No. 15, and Cpd. No. 22 with co-treatment of Cpd. C. The structure of Cpd.

Assay [3] has as its system RS4; 11 cells transfected shRNA control vector. Nature of the assay: Cell growth inhibition by WST assay, shRNA control cells. More on the design: LogIC50: unit not given here. Particulars: RS4;11 sh Control, 4 days; for IC50: Homo sapiens, 96 h. On the procedure:
as §2

Assay [4] deals with T1, MDM2 (Homo sapiens, UniProt Q00987). Briefly: MDM2 degradation with or without proteasome inhibitor MG-132, western blotting. Further details: endogenous in cells; host or cells: RS4;11. The note with it: FIG. 6. The procedure: RS4; 11 cells were pre-incubated with the proteasome inhibitor MG-132 (20 μM) or without any pre-incubation for 2 hours. Next, the cells were treated with Cpd. A (0.3 μM), Cpd. No. 14 (0.03 μM), Cpd. No. 15 (0.01 μM), and Cpd. No. 22 (0.01 μM) for 2 hours, then harvested and lysed. The cell lysates were subject to western blotting analysis.
T1 sequence (Q00987 whole entry): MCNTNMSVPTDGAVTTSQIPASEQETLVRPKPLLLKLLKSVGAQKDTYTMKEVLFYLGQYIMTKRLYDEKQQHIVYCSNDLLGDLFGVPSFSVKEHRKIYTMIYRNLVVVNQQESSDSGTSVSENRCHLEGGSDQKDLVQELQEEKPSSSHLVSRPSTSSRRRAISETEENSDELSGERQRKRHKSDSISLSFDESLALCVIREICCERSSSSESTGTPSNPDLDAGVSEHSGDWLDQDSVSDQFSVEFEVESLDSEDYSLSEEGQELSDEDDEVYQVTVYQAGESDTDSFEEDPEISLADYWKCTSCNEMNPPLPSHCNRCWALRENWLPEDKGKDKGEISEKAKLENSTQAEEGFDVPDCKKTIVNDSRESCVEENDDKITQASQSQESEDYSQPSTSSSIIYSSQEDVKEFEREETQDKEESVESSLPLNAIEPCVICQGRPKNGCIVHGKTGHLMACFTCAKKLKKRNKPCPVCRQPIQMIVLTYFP

Assay [5] concerns the target T1, MDM2. Briefly: MDM2 degradation and p53 activation after pre-incubation with Cpd. C, Western blot. More on the design: endogenous in cells; host or cells: RS4;11. On the procedure: RS4; 11 cells were pre-incubated with 30 μM Cpd. C to compete for the binding of phthalimide to CRBN, or DMSO, for 2 hours before adding Cpd. A, Cpd. No. 14, Cpd. No. 15, and Cpd. No. 22. In the Western blot RS4; 11 cells were then co-treated with the indicated compounds at the indicated concentrations after pre-incubation. […] No. 14, Cpd. No. 15, and Cpd.
In general terms: Immunoblotting shows a protein as a band on a membrane.

Where [6] appears, read: Homo sapiens, 96 h, without Cpd. C.
Where [7] appears, read: RS4, 11 cells, pre-incubated with 30 μM Cpd. C for 2 hours.

Consider `O=C(O)c1ccc(NC(=O)[C@@H]2NC3(CCCCC3)[C@@]3(C(=O)Nc4cc(Cl)ccc43)[C@H]2c2cccc(Cl)c2F)cc1` [Cpd. A, reference compound], for which the “activation of p53 downstream target genes (mRNA levels of p21, PUMA, BAX)” value in assay [1] is given as “Significant activation”. Besides, the IC50 worked out at 86 nM in the assay on RS4; 11 cell line; 100 nM with MV4-11 cell line; 9830 nM in assay [2]; 48.1 nM in the assay on RS4; 11 cells (+ 10 uM Cpd. C); 39 nM in the assay with RS4; 11 cells (+ 20 uM Cpd. C); 36.5 nM in the assay with RS4; 11 cells (+ 30 uM Cpd. C). In addition, the IC50 with RS4; 11 cells (setting [6]) is 93.3 nM; in assay [3], 97.5 nM. Further, the figures for the HiliSlope in assay [2] and in assay [3] were −0.4240 and −1.155, respectively. Further, the LogIC50 in assay [2] was 0.9926; in the assay with RS4; 11 cells (+ 10 uM Cpd. C), −1.317; with RS4; 11 cells (+ 20 uM Cpd. C), −1.409; with RS4; 11 cells (+ 30 uM Cpd. C), −1.438; in the assay with RS4; 11 cells (without Cpd. C), −1.030; in assay [3], −1.011. The HillSlope is listed as −1.569 with RS4; 11 cells (+ 10 uM Cpd. C), −1.406 with RS4; 11 cells (+ 20 uM Cpd. C), −1.411 in the assay with RS4; 11 cells (+ 30 uM Cpd. C) and −1.496 in the assay on RS4; 11 cells (without Cpd. C).

Turning to `O=C1CCC(N2C(=O)c3cccc(NCCOCCOCCNC(=O)c4ccc(NC(=O)[C@@H]5NC6(CCCCC6)[C@@]6(C(=O)Nc7cc(Cl)ccc76)[C@H]5c5cccc(Cl)c5F)cc4)c3C2=O)C(=O)N1` (stereo partly drawn) [Cpd. No. 14, (3′R,4'S,5′R)-6″-chloro-4′-(3-chloro-2-fluorophenyl)-N-(4-((2-(2-(2-((2-(2,6-dioxopiperidin-3-yl)-1,3-dioxoisoindolin-4-yl)amino)ethoxy)ethoxy)ethyl)carbamoyl)phenyl)-2″-oxodispiro[cyclohexane-1,2′-pyrrolidine-3′,3″-indoline]-5′-carboxamide], on MDM2 [4], the “MDM2 degradation, dependence on proteasome” value is “proteasome-dependent”. At MDM2 [5] (FIG. 7), the “MDM2 degradation, dependence on cereblon (CRBN)” value is given as “cereblon (CRBN)-dependent”. The “MDM2 degradation, competition by Cpd. C” value on MDM2 [5] (setting [7]) was “significantly competed by Cpd. C”. Further, the “p53 activation, competition by Cpd. C” value on MDM2 [5] (setting [7]) was “significantly competed by Cpd. C”. For the same compound, the IC50 with RS4; 11 cell line is 8.5 nM; in the assay on MV4-11 cell line, 7.6 nM; in assay [2] it was 501 nM; in the assay on RS4; 11 cells (+ 10 uM Cpd. C), 57 nM; in the assay with RS4; 11 cells (+ 20 uM Cpd. C) it was 81.1 nM; in the assay with RS4; 11 cells (+ 30 uM Cpd. C) it was 77.4 nM. The results for the IC50 (with RS4; 11 cells (setting [6]); in assay [3]) were 7.13 nM and 9.67 nM, respectively. In addition, the HiliSlope in assay [2] is −0.4731; in assay [3], −1.475. The LogIC50 is given as −0.3000 in assay [2]; −1.244 in the assay with RS4; 11 cells (+ 10 uM Cpd. C); −1.091 in the assay on RS4; 11 cells (+ 20 uM Cpd. C); −1.111 with RS4; 11 cells (+ 30 uM Cpd. C); −2.147 in the assay with RS4; 11 cells (without Cpd. C); −2.014 in assay [3]. Moreover, the HillSlope with RS4; 11 cells (+ 10 uM Cpd. C) is on record as −1.705; with RS4; 11 cells (+ 20 uM Cpd. C) it was −1.667; with RS4; 11 cells (+ 30 uM Cpd. C), −1.600; in the assay on RS4; 11 cells (without Cpd. C), −1.996. Besides, in the assay on RS4; 11 cells (co-treatment of Cpd. C (10, 20, or 30 μM)), the “shift of the dose response curves” value was “Significant rightward shifts”.

As for `O=C1CCC(N2Cc3c(NCCOCCOCCNC(=O)c4ccc(NC(=O)[C@@H]5NC6(CCCCC6)[C@@]6(C(=O)Nc7cc(Cl)ccc76)[C@H]5c5cccc(Cl)c5F)cc4)cccc3C2=O)C(=O)N1` (stereo partly drawn) [Cpd. No. 21, (3′R,4'S,5′R)-6″-chloro-4′-(3-chloro-2-fluorophenyl)-N-(4-((2-(2-(2-((2-(2,6-dioxopiperidin-3-yl)-1-oxoisoindolin-4-yl)amino)ethoxy)ethoxy)ethyl)carbamoyl)phenyl)-2″-oxodispiro[cyclohexane-1,2′-pyrrolidine-3′,3″-indoline]-5′-carboxamide], the IC50 in the assay with RS4; 11 cell line amounted to 4.4 nM; with MV4-11 cell line, 2 nM; in assay [2], 4160 nM; in assay [3], 13.1 nM. The HiliSlope is given as −0.4410 in assay [2] and −1.448 in assay [3]. Also, the figures for the LogIC50 in assay [2] and in assay [3] were 0.6196 and −1.882, respectively.

Consider `O=C1CCC(N2C(=O)c3cccc(NCCCOCCOCCOCCCNC4CCN(C(=O)c5ccc(NC(=O)[C@@H]6NC7(CCCCC7)[C@@]7(C(=O)Nc8cc(Cl)ccc87)[C@H]6c6cccc(Cl)c6F)cc5)CC4)c3C2=O)C(=O)N1` (stereo partly drawn) [Cpd. No. 5, (3′R,4'S,5′R)-6″-chloro-4′-(3-chloro-2-fluorophenyl)-N-(4-(4-((3-(2-(2-(3-((2-(2,6-dioxopiperidin-3-yl)-1,3-dioxoisoindolin-4-yl)amino)propoxy)ethoxy)ethoxy)propyl)amino)piperidine-1-carbonyl)phenyl)-2″-oxodispiro[cyclohexane-1,2′-pyrrolidine-3′,3″-indoline]-5′-carboxamide], for which the half-inhibitory concentration (IC50) is 2.2 nM with RS4; 11 cell line and 15 nM with MV4-11 cell line.

As to `COCCONC(=O)c1ccc(NC(=O)[C@@H]2NC3(CCCCC3)[C@@]3(C(=O)Nc4cc(Cl)ccc43)[C@H]2c2cccc(Cl)c2F)cc1` [Cpd. B, reference compound], in assay [2], the IC50 turned out to be 5670 nM, the HiliSlope is recorded as −0.7973 and the LogIC50 is recorded as 0.7537. In assay [3], this compound displayed a 50% inhibitory concentration (IC50) of 85.3 nM, a HiliSlope of −0.9620 and a LogIC50 of −1.069.

`O=C(COc1cccc2c1C(=O)N(C1CCC(=O)NC1=O)C2=O)NCCCCNC(=O)c1ccc(NC(=O)[C@@H]2NC3(CCCCC3)[C@@]3(C(=O)Nc4cc(Cl)ccc43)[C@H]2c2cccc(Cl)c2F)cc1` (stereo partly drawn) [Cpd. No. 1, (3′R,4'S,5′R)-6″-chloro-4′-(3-chloro-2-fluorophenyl)-N-(4-((4-(2-((2-(2,6-dioxopiperidin-3-yl)-1,3-dioxoisoindolin-4-yl)oxy)acetamido)butyl)carbamoyl)phenyl)-2″-oxodispiro[cyclohexane-1,2′-pyrrolidine-3′,3″-indoline]-5′-carboxamide]: the concentration for half-maximal inhibition (IC50) in the assay on RS4; 11 cell line is 233 nM; in the assay on MV4-11 cell line, 416 nM.

Regarding `O=C1CCC(N2C(=O)c3cccc(NCCOCCNC(=O)c4ccc(NC(=O)[C@@H]5NC6(CCCCC6)[C@@]6(C(=O)Nc7cc(Cl)ccc76)[C@H]5c5cccc(Cl)c5F)cc4)c3C2=O)C(=O)N1` (stereo partly drawn) [Cpd. No. 13, (3′R,4'S,5′R)-6″-chloro-4′-(3-chloro-2-fluorophenyl)-N-(4-((2-(2-((2-(2,6-dioxopiperidin-3-yl)-1,3-dioxoisoindolin-4-yl)amino)ethoxy)ethyl)carbamoyl)phenyl)-2″-oxodispiro[cyclohexane-1,2′-pyrrolidine-3′,3″-indoline]-5′-carboxamide], the IC50 was 7.4 nM with RS4; 11 cell line and 5.2 nM with MV4-11 cell line.

For orientation: IC50 means the midpoint of a concentration-inhibition curve.
